According to patent US20260256870A1, “SKIN COMPOSITION” (Eaderm Co., Ltd., priority 2019, published 2026):
Entries after “also recorded” stand apart in the source; their conditions may differ. Where a name gives a salt, the structure may show the parent alone.

Key:
[1] = system: COL17A1; assay: Stabilization of COL17A1 against UV-induced repression
[2] = system: human epidermal keratinocytes; assay: Colony formation assay using human epidermal keratinocytes; format: cell-based
Excerpt: To test whether COL17A1-mediated SCD maintains clonal proliferation of epidermal stem cell clones, the present inventors used a colony formation assay, which is an in vitro assay said to be the gold standard for assessing the self-renewal ability of epidermal stem cells, including cells in the tail epidermis.

[3] = system: UVB-irradiated back skin; assay: Barrier function after UVB irradiation (Example 12); format: in vivo, Hairless mice HOS: HR-1; conditions: for water content of the stratum corneum after ultraviolet irradiation: UVB 150 mJ/cm^2, fourth day (FIG. 21)
Experimental: Hairless mice HOS: HR-1 females (7 weeks old) were acclimatized to the experimental environment and then grouped into the 6 groups below, so that the body weight values were nearly uniform. • No ultraviolet irradiation group (n=2) • Ultraviolet (UVB) irradiation+solvent application group (n=4). • Ultraviolet (UVB) irradiation+200 nM apocynin application group (n=4). • Ultraviolet (UVB) irradiation+200 μM apocynin application group (n=4). • Ultraviolet (UVB) irradiation+2 μM Y-27632 application group (n=4). • Ultraviolet (UVB) irradiation+20 μM Y-27632 application group (n=4) In the above solution application group, aqueous solutions of each preparation were applied to hairless mice on their back once a day for five days, starting from the day before ultraviolet irradiation. UVB irradiation was carried out using a Yayoi ultraviolet irradiation system (Y-UV-Lab-K-D5 lamp type) at an intensity of 150 mJ/cm^2 once a day. The stratum corneum water content and TEWL of the irradiated area were measured for each group of mice on the fourth day after the start of ultraviolet irradiation. The measurements were performed using Corneometer CM825 and Tewameter TN300 (Courage+Khazaka, Integral Corporation, Germany) at specific sites on the back of the mice.

[4] = system: full thickness wounds in the skin of rodent tails; assay: Full thickness wound healing in tail skin; format: in vivo, mice; conditions: day 0, day 14, day 21 (FIG. 12)
Experimental: To test the above hypothesis, the present inventors performed a full-layer wound healing experiment using the tail skin of aged wild-type mice. […] Forced expression of hCOL17A1 by basal layer keratinocytes in mice also promoted wound healing (FIG. 12). […] To confirm the beneficial effects in vivo, these drugs were administered to full thickness wounds in the skin of rodent tails.

[5] = system: COL17A1; assay: COL17A1 expression in human epidermal keratinocytes by high content imaging (HCS); format: cell-based; conditions: for COL17A1 expression level (control ratio): human epidermal keratinocytes, 48 hours after addition of reagents
Experimental: The present inventors further searched for substances that induce or maintain the expression of COL17A1. Human epidermal keratinocytes were seeded in 384-well plates, cultured for 48 hours after addition of reagents, immunostained with an anti-COL17A1 antibody and a fluorescently labeled secondary antibody, and then the fluorescence intensity per cell was detected using a high content imaging system (HCS: High Content Screening). In addition to cell counting with DAPI, the expression level of COL17A1 was quantified.

[6] = system: COL17A1; conditions: HaCaT cells, 24 hours after hydrogen peroxide treatment (FIG. 17)
Experimental: The anticancer agent hydroxyurea was administered to 7-week-old C57BL6 mice three times a month, and the tissues were collected three months later for immunostaining using an antibody for COL17A1. […] In addition, HaCaT cells, which are human epidermal keratinocytes, were irradiated with radiation (20 Gy, 30 Gy) and UV light (20 mJ, 30 mJ) and the cells were collected after 24 and 72 hours, respectively, and Western blotting was performed using an antibody against COL17A1.

[7] = system: UV-induced wrinkles of back skin; assay: Wrinkle improvement after UV irradiation (Example 15); format: in vivo, Hairless mice HOS: HR-1; conditions: UVA+UVB, retinol 0.1%, apocynin 200 μM, long-term application (FIG. 25)
Excerpt: In a mouse model in which wrinkle formation was induced by long-term exposure to ultraviolet (UVA) light, the present inventors examined the effect of substances that promote the self-renewal ability of epidermal stem cells on the improvement of wrinkles.
Hairless mice HOS: HR-1 females (7 weeks old) were acclimated to the experimental environment and then grouped into the […] groups below, so that their body weight values would be nearly uniform. • No UV irradiation group (n=2). • UV (UVA+UVB) irradiation+solvent application group (n=4) • Ultraviolet (UVA+UVB) irradiation+200 μM apocynin application group (n=4). • UV (UVA+UVB) irradiation+0.1% retinol application group (n=2) […]
For each group of mice from the first to the fourth week after the start of UV irradiation, the back was photographed with a high-resolution three-dimensional image analyzer PRIMOS-CR (Canfield Scientific, Inc., USA). Based on the images obtained, total wrinkle volume (mm^3) and total wrinkle mean depth (μm) were measured with the Primos OMC3_22 software. Skin flexibility was measured using Cutometer MPA580 (Courage+Khazaka, Integral Corporation, Germany), and the value of RO was used as skin flexibility.

[8] = system: back skin; assay: Skin elasticity and TEWL after long-term application (Example 14); format: in vivo, hairless mice (HOS: HR-1); conditions: three times a week for seven weeks, day 53; retinol 0.1%, apocynin 200 μM (FIG. 23)
Experimental: TEWL measurements and skin elasticity measurements were performed on the back of each group (at two sites on the left side and right side symmetrically from the center of the spine) 7 weeks after the start of application (day 53). TEWL measurements were performed at specific sites on the back of mice (two sites on the left side and right side symmetrically from the center of the spine). The elasticity of the skin was measured using Cutometer MPA580 (Courage+Khazaka, Integral Corporation, Germany) (parameter settings: 300 mba, 2 sec ON time, 2 sec OFF time), and the average value of the three measurements was used for analysis. By suctioning the skin on the back of the mouse for 2 seconds and then releasing the suction 2 seconds later, the length of the skin stretched was measured at each time point immediately after suctioning, immediately before suction release, and immediately after suction release; and they are return of the skin at the time of suction release (Ua: unit mm), rapid stretching in the initial stage of suctioning (Ue: unit mm), maximum degree of skin stretch just before suction release (Uf: unit mm), and the amount of rapid recovery immediately after suction release (Ur: unit mm). R5-Ur/Ue was set as the index of net elasticity, and R7=Ur/Uf as the index of elasticity. R2=Ua/Uf was set as the index of gross elasticity.

[9] = system: skin damage induced by anticancer drugs; assay: TEWL after EGF receptor inhibitor administration (Example 9); conditions: control mice about 18 months old, 50 mg/kg/day intraperitoneal, day 7 (FIG. 18)
Excerpt: A 0.5% methylcellulose solution of the solvent was similarly administered to the control non-treated group. […] Measurements were taken at specific sites on the back of the mice (two sites symmetrically located on the left side and right side from the center of the spine) using Tewameter TN300 (Courage+Khazaka, Integral Corporation, Germany).

[10] = system: skin damage induced by erlotinib; assay: Improvement of skin damage caused by erlotinib administration, TEWL (Example 10); format: in vivo, C57BL6N mice; conditions: erlotinib 50 mg/kg/day intraperitoneal, 7 weeks old or 6 months old mice (FIG. 19)
Experimental: Female […] mice (7 weeks old or 6 months old) were acclimatized to the experimental environment, and then hair was removed from their back under anesthesia. […] The control non-administered group received the 0.5% methylcellulose solution of the solvent in the same way. The control group applied with the solvent and the group applied with 200 μM apocynin received an aqueous solution of each preparation once a day, five times a week on the back. To the control solvent application group the solvent (50% ethanol/PBS) of apocynin was similarly applied.

[11] = Table 1, fluorescence intensity per cell

With CNC(=O)[C@@H](NC(=O)[C@H](CC(C)C)[C@H](O)C(=O)NO)C(C)(C)C [Marimastat] the “COL17A1 stability / UV-induced downward repression of COL17A1” value [1] was “stabilizes COL17A1 and blocks the UV-induced downward repression of COL17A1”.

In the case of C[C@@H](N)[C@H]1CC[C@H](C(=O)Nc2ccncc2)CC1 [Y-27632], the “Colony area (control ratio)” value ([2]; Table 1) is reported as “⊚ (one double circle (⊚) indicates maintenance of 1.0-1.2-fold)”, the “Colony number (control ratio)” value ([2]; Table 1) is reported as “⊚ (one double circle (⊚) indicates maintenance of 1.0-1.2-fold)” and the number of colonies ([2]; compared to the control, n=3 wells (FIG. 13, FIG. 16)) is reported as “significantly increased”. For the same molecule, the “average size of the top five colonies” value ([2]; compared to the control, n=3 wells (FIG. 14)) was “significantly increased”, the colony size ([2]; human epidermal keratinocytes) was “significantly increased” and the “number of colonies with a diameter greater than 2 mm” value ([2]; n=3 wells (FIG. 13 right)) was “significantly increased”. The “water content of the stratum corneum after ultraviolet irradiation” value ([3]; 2 μM applied) was “significantly higher”, the “TEWL after ultraviolet irradiation” value ([3]; 20 μM administration group, UVB, fourth day (FIG. 21)) was “significantly lower” and the “water content of the stratum corneum after ultraviolet irradiation” value ([3]; 20 μM applied) was “significantly higher”. For the same molecule, the “wound repair (unrepaired wound area)” value [4] was “significantly accelerated”, the “wound repair (unrepaired wound area)” value ([4]; listed as Y27632) was “significantly promote the wound repair process” and the “COL17A1 expression level (control ratio)” value [5, 11] was “⊚⊚ (two double circles (⊚⊚) in the COL17A1 expression level (control ratio) represent a 2.0-fold or greater increase in the expression level)”. For the same molecule, the “COL17A1 expression / amount of COL17A1 in cultured keratinocytes compared to the control” value ([5]; in vitro, HCS (FIG. 15)) was “maintain or induce the COL17A1 expression; also recorded: induce the COL17A1 expression”.

In the case of OO [hydrogen peroxide], the “expression of COL17A1 (Western blot)” value [6] is reported as “marked decrease”.

For CC1=C(/C=C/C(C)=C/C=C/C(C)=C/CO)C(C)(C)CCC1 [Retinol], the TEWL [7] was “significantly increased”, the TEWL ([7]; listed as retinol) was “marked increase” and the “TEWL after long-term continuous application” value [8] was “significantly increased”.

With C#Cc1cccc(Nc2ncnc3cc(OCCOC)c(OCCOC)cc23)c1 [Erlotinib] the TEWL [9] was “significantly increased” and the TEWL [10] was “significantly increased”.

CN(C)c1cccc(-c2c3c(=O)n(-c4ccccc4Cl)[nH]c3cc(=O)n2C)c1 [GKT137831] was tested, and the “Colony area (control ratio)” value ([2]; Table 1) was “○”, the “Colony number (control ratio)” value ([2]; Table 1) was “○” and the “COL17A1 expression level (control ratio)” value [5, 11] was “○ (one circle (0) represents a 1.0-1.2-fold maintenance)”.

For Helenin, the “Colony area (control ratio)” value ([2]; Table 2) was “⊚ (one double circle (⊚) indicates maintenance of 1.0-1.2-fold)”, the “Colony number (control ratio)” value ([2]; Table 2) was “⊚ (one double circle (⊚) indicates maintenance of 1.0-1.2-fold)” and the “COL17A1 expression level (control ratio)” value ([5]; Table 2) was “⊚⊚ (two double circles (⊚⊚) in the COL17A1 expression level (control ratio) represent a 2.0-fold or greater increase in the expression level)”.

With O=S(=O)(c1cccc2cnccc12)N1CCCNCC1 [Fasudil (HA-1077), Fasudil] the “Colony area (control ratio)” value ([2]; Table 1) was “⊚ (one double circle (⊚) indicates maintenance of 1.0-1.2-fold)”, the “Colony number (control ratio)” value ([2]; Table 1) was “⊚ (one double circle (⊚) indicates maintenance of 1.0-1.2-fold)” and the “COL17A1 expression level (control ratio)” value [5, 11] was “⊚⊚ (two double circles (⊚⊚) in the COL17A1 expression level (control ratio) represent a 2.0-fold or greater increase in the expression level)”.

c1ccc2c(c1)[I+]c1ccccc1-2 [Diphenyleneiodonium (DPI), Diphenyleneiodonium] was tested, and the “Colony area (control ratio)” value ([2]; Table 1) was “○”, the “Colony number (control ratio)” value ([2]; Table 1) was “○” and the “COL17A1 expression level (control ratio)” value [5, 11] was “⊚ (one double circle (⊚) represents a 1.2-fold or greater increase)”.

For CC(CN(C)C)CN1c2ccccc2CCc2ccccc21 (centres unmarked) [Trimipramine Maleate], the “Colony area (control ratio)” value ([2]; Table 1) was “⊚ (one double circle (⊚) indicates maintenance of 1.0-1.2-fold)”, the “Colony number (control ratio)” value ([2]; Table 1) was “⊚ (one double circle (⊚) indicates maintenance of 1.0-1.2-fold)” and the “COL17A1 expression level (control ratio)” value [5, 11] was “⊚⊚ (two double circles (⊚⊚) in the COL17A1 expression level (control ratio) represent a 2.0-fold or greater increase in the expression level)”.
